From ChEMBL document CHEMBL5465560, “Selectivity Literature for EUbOPEN Chemogenomic Library” (2024)

How the values were obtained:
[1] = molecular target: T1, Mitogen-activated protein kinase 13 (Homo sapiens) (UniProt O15264); test: Selectivity interaction (KinomeScan (DiscoverX)) EUB0000595a MAPK13; conditions: at 10 µM
T1 sequence (whole entry): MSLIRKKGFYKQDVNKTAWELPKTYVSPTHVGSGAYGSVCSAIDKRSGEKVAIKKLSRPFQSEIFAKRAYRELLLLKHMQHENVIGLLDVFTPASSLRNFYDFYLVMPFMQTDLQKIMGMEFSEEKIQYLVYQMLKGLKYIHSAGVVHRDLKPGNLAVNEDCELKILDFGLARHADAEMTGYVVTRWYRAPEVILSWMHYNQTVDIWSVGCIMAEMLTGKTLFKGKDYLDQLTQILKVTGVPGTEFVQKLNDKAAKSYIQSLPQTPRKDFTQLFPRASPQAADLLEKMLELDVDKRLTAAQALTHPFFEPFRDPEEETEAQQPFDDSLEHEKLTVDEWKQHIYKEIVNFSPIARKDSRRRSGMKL

[2] = molecular target: T2, Interleukin-1 receptor-associated kinase 3 (Homo sapiens) (UniProt Q9Y616); test: Selectivity interaction (KinomeScan (DiscoverX)) EUB0000045b IRAK3
T2 sequence (whole entry): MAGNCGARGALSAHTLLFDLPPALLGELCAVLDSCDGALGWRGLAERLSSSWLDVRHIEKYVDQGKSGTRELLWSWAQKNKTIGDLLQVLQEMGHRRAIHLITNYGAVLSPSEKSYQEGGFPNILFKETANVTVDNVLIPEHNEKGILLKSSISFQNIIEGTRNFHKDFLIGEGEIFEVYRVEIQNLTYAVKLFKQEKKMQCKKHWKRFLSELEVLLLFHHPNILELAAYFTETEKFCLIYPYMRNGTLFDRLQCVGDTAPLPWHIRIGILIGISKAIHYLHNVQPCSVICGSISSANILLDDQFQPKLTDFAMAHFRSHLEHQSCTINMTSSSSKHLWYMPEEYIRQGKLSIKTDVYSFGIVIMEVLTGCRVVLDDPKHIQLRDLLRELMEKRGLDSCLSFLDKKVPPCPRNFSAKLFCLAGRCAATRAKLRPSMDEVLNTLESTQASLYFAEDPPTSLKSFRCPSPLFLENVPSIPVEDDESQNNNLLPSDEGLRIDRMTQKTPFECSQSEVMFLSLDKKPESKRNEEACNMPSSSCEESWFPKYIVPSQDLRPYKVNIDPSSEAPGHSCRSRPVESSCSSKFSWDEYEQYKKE

[3] = molecular target: Activated CDC42 kinase 1 (Homo sapiens, UniProt Q07912); test: Selectivity interaction (LanthaScreen Eu Kinase Binding Assay) EUB0001632a TNK2; conditions: at 10 µM
Sequence of Activated CDC42 kinase 1 (Q07912 whole entry, looked up): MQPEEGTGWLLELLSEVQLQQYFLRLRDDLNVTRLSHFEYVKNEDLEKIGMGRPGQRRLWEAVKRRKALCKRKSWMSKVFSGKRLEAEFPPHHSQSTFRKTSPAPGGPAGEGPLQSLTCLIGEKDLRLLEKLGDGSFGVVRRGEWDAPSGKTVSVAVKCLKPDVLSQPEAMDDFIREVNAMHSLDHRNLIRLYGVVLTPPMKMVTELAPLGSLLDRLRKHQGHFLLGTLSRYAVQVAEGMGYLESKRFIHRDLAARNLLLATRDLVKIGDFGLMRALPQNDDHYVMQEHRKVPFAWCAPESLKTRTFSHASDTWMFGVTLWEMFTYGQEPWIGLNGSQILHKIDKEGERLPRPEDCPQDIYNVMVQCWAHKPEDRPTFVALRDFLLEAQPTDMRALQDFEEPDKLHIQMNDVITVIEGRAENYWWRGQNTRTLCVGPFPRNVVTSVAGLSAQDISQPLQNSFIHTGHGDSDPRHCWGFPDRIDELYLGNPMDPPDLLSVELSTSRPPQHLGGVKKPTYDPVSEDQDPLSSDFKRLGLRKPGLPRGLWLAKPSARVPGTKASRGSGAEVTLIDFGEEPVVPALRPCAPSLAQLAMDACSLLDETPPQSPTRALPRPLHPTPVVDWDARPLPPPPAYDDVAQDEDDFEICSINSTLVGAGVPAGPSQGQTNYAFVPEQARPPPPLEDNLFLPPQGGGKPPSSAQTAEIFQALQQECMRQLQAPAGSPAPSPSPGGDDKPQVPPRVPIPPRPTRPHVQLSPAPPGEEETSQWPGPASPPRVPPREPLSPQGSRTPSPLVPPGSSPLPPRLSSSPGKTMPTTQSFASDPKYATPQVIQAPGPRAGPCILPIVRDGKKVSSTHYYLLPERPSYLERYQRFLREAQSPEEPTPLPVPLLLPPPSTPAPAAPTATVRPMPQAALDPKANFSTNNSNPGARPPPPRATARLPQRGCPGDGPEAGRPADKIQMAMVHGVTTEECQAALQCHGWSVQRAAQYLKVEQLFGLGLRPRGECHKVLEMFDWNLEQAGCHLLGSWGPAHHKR

[4] = molecular target: Receptor tyrosine-protein kinase erbB-2 (Homo sapiens, UniProt P04626); conditions: at 10 µM
Sequence of Receptor tyrosine-protein kinase erbB-2 (P04626 whole entry, the tested form may be a part): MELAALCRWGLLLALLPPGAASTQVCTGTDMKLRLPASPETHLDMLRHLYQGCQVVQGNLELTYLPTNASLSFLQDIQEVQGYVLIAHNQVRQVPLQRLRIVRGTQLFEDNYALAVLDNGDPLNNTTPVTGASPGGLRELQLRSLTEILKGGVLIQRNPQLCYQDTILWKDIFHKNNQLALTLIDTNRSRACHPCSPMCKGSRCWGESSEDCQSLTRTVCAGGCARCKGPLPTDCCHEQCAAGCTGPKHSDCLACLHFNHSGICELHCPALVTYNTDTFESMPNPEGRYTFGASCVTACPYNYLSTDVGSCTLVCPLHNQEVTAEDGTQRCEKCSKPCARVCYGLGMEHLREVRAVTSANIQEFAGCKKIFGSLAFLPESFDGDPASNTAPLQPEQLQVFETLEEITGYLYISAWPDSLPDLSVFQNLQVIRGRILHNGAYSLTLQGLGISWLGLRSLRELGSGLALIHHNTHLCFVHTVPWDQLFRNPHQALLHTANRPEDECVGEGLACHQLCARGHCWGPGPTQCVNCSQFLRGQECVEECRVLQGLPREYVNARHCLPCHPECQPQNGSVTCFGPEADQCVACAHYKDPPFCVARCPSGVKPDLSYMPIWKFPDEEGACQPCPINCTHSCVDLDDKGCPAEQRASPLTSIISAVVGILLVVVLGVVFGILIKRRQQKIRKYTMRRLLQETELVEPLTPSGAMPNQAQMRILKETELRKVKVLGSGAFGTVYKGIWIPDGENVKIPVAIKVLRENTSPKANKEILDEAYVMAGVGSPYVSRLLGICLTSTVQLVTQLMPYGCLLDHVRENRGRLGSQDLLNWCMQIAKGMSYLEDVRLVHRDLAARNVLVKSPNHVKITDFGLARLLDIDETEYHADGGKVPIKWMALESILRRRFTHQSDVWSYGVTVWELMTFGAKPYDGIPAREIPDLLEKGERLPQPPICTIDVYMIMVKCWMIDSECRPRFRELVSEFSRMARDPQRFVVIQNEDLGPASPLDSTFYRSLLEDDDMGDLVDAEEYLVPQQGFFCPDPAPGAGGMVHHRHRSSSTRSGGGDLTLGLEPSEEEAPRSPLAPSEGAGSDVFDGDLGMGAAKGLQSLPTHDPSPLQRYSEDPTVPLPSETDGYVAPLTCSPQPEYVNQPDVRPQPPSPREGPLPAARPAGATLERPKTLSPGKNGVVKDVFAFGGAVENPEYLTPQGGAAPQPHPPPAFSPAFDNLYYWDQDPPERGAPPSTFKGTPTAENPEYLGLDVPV

[5] = molecular target: LIM domain kinase 2 (Homo sapiens) (UniProt P53671); test: Selectivity interaction (KinomeScan (DiscoverX)) EUB0001619a LIMK2; conditions: at 1 µM
Sequence of LIM domain kinase 2 (Homo sapiens) (P53671 whole entry, looked up, the tested form may be a part): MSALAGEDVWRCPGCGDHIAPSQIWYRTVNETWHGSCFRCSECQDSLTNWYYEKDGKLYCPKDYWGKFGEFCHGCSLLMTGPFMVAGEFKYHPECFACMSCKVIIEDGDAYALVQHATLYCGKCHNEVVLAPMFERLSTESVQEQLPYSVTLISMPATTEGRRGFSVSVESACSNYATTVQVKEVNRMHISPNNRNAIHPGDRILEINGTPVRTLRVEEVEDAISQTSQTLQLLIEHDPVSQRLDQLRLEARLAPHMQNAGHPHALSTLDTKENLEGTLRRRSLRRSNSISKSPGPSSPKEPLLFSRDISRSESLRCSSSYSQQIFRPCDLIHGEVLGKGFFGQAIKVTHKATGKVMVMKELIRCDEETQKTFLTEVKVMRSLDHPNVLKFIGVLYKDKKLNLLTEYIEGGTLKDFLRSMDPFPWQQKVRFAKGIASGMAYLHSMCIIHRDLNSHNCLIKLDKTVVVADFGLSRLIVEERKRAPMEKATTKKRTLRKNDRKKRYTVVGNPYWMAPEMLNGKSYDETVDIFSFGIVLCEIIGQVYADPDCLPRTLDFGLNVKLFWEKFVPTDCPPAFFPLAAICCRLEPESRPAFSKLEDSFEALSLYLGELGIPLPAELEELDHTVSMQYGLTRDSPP

[6] = molecular target: T3, cGMP-dependent protein kinase 1 (Homo sapiens) (UniProt Q13976); test: Selectivity interaction (KinomeScan (DiscoverX)) EUB0000607a PRKG1; conditions: at 10 µM
T3 sequence (whole entry): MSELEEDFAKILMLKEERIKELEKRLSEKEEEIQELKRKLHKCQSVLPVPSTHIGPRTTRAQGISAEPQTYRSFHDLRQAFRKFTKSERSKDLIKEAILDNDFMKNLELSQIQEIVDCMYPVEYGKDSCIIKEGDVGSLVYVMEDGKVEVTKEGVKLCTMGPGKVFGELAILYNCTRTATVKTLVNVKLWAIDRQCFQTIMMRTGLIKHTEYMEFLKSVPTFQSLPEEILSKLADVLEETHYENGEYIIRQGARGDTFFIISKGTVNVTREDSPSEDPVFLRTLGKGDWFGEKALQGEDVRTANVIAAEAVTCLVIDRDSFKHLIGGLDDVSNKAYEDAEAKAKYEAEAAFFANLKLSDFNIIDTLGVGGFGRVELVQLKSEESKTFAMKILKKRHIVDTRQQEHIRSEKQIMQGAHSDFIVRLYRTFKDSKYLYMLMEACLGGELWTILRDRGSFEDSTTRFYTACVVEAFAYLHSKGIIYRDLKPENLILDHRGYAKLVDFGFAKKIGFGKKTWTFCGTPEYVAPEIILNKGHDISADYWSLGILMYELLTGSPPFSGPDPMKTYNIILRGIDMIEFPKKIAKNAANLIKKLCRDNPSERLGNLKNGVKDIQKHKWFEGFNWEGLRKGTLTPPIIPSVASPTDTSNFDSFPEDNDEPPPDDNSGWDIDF

[7] = molecular target: Calcium/calmodulin-dependent protein kinase type 1D (Homo sapiens) (UniProt Q8IU85); test: Selectivity interaction (ActivX KiNativ screen (kinase selectivity in THP-1 cell lysates)) EUB0000639a CAMK1D; assay type: subcellular; conditions: lysate
Sequence of Calcium/calmodulin-dependent protein kinase type 1D (Homo sapiens) (Q8IU85 whole entry, looked up): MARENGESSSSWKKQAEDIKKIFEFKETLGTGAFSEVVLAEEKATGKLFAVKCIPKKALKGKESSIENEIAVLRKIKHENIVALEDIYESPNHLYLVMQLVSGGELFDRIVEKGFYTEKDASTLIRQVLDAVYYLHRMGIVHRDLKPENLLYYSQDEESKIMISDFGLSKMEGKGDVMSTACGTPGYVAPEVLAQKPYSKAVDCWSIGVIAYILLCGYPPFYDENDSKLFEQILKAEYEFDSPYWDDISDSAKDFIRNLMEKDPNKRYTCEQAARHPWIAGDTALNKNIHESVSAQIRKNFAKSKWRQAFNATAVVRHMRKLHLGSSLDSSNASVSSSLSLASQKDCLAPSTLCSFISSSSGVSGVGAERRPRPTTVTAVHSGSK

[8] = molecular target: Cyclin-dependent kinase 2 (Homo sapiens, UniProt P24941); test: Selectivity interaction (ActivX KiNativ screen (kinase selectivity in THP-1 cell lysates)) EUB0000639a CDK2; assay type: subcellular; conditions: lysate, at 0.01 µM

COCC(=O)NC/C=C/c1ccc2ncnc(Nc3ccc(Oc4ccc(C)nc4)c(C)c3)c2c1 [CP-724714]
% of control [1]: 100%

C=CC(=O)Nc1cc(-n2c(=O)ccc3cnc4ccc(-c5ccc(NS(C)(=O)=O)cc5)cc4c32)ccc1C
% of control ([2]; at 1 µM): 73% | % of control ([2]; at 10 µM): 34%

Cn1cc(-n2cnc3c(NCc4nc5cc(Cl)c(Cl)cc5[nH]4)nc(N4CCOCC4)nc32)cn1
% of inhibition [3]: -5.62%

Cc1cc([C@@H](C)Nc2ccccc2C(=O)O)c2nc(N3CCOCC3)cc(=O)n2c1 [AZD-6482]
% of control [4]: 100%

N#Cc1cccc(-c2c[nH]c3ncnc(N4CCOCC4)c23)c1
% of control [5]: 96%

CNC(=O)Nc1ccc(-c2nc(N3CC4CCC(C3)O4)c3cnn(C4CCC5(CC4)OCCO5)c3n2)cc1
% of control [6]: 100%

CC[C@@H]1[C@H](F)C(=O)N[C@@H]1COc1nccc2cc(C(N)=O)c(OC)cc12 [ZIMLOVISERTIB]
% of inhibition ([7]; at 0.01 µM): 7.8% | % of inhibition ([7]; at 0.04 µM): 5.4% | % of inhibition ([7]; at 0.2 µM): 9.3% | % of inhibition ([7]; at 1 µM): 18.4% | % of inhibition ([7]; at 5 µM): 34.3% | % of inhibition [8]: 0.3%
